Data: PMC3829776 (Nature chemical biology, 2013)

Molecular target: T1, Adipose triglyceride lipase (ATGL) (Mus musculus, UniProt Q8BJ56)
T1 sequence (Q8BJ56 1-486): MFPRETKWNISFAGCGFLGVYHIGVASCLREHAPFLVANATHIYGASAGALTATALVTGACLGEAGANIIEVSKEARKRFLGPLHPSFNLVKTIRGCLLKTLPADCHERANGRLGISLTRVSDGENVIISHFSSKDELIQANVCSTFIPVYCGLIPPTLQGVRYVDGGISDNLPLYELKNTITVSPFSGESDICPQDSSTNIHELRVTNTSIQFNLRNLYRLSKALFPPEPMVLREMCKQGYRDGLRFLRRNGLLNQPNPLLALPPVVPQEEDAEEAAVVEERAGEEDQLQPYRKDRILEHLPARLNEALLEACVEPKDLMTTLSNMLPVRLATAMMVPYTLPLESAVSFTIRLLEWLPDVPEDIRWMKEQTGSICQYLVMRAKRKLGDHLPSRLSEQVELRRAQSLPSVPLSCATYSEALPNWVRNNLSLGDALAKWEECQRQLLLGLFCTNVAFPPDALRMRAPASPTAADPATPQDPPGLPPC
T1 sequence (Q9DBL9 1-351 partner): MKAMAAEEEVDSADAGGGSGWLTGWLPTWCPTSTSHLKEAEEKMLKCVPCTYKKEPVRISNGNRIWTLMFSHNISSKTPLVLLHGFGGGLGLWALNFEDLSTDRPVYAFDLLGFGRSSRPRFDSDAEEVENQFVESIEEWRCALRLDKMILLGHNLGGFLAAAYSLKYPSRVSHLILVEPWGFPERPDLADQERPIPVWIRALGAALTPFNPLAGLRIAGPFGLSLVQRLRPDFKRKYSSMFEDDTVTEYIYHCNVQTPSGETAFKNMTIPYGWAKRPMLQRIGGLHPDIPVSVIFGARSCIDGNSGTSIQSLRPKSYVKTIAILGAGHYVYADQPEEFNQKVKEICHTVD
Type: biochemical

`CN(C)C(=O)Nc1cccc(-c2ccc(N(C)C)cc2)c1` [compound 4, Atglistatin] gave a Ki of 355 ± 48 nM.
